These are literature values, as cited in patent US11759418B1, “Composition for treating wounds, dermatitis, inflammation, and irritation” (Chrism Products, Inc., priority 2016, dated 2023).

Read-outs that look alike come from different tables or passages of the source.

One data set relates to wound healing process. The note with it: results from histological analyses.
The conditions of data set [1]: chemically synthesized bulk allantoin.

`NC(=O)NC1NC(=O)NC1=O` (stereo not shown) [Allantoin, 5-ureidohydantoin]: the “effect on wound healing process” value in the data set with wound healing process is “benefits the wound healing process”. For the same compound, the Concentration entry runs as follows: (5% Glycerin in water, 20° C.) “ca 0.8%”; (50% Isopropanol in water, 25° C.) “ca. 0.3%”; (Ethanol, 20° C.) “ca. 0.1%”; (Propylene glycol, 25° C.) “ca. 0.3%”; (Water, 20° C.) “ca. 0.4%”; (Water, 75° C.) “ca. 4.0%”. Besides, in data set [1], the safety / toxicity entry was “safe, non-toxic”.

With “benzyl-dimethyl-tridecylazanium [Benzalkonium Chloride]”, the “concentration producing mild skin irritation” value in the data set on skin (clinical studies, dermal use) is recorded as no less than 5%. Moreover, in the data set with skin (in vivo), the “concentration safe for dermal use” value is “up to 0.5%”.
